This is an account of results in the supplement of paper PMC6331611.

Converted amounts (≈) assume the structure as drawn. Structures can show the parent of a compound that is named as a salt.

As a reminder, the MIC is the smallest concentration in the dilution series that meets the test's criterion for growth inhibition.

In assay [1] the test system is Salmonella enterica serovar Typhimurium SL1344.
Assay [2] shares this test system. Kind of assay: intracellular MIC (10-fold luminescence reduction); higher = less potent. As to conditions: RAW264.7 macrophages.
In assay [3] the test system is RAW264.7. Kind of assay: cytotoxicity (LDH release relative to maximum lysis); higher = more toxic. Particulars: 50 µM; 2 h. On the technique in general: Release of lactate dehydrogenase indicates damage to the cell membrane.

Consider `CC(=O)OC1CN2CCC1CC2` (stereo not given) [ACECLIDINE], for which the MIC in assay [1] (LPM pH 5.8), in assay [1] (MHB) and in assay [1] (MOPS glucose minimal medium) was over 50 µM each time. Also, the “intracellular MIC” value in assay [2] is over 50 µM. Further, in assay [3], the cytotoxicity is 20.3%.
`CCOC(=O)C1=C(COCCN)NC(C)=C(C(=O)OC)C1c1ccccc1Cl` (stereo not given) [AMLODIPINE BESYLATE]: the MIC in assay [1] (LPM pH 5.8), in assay [1] (MHB) and in assay [1] (MOPS glucose minimal medium) was at most 0.78 µM in each case. The “intracellular MIC” value in assay [2] was over 50 µM. In assay [3], the cytotoxicity came to 22.5%.
With `CO[C@H]1O[C@@H]2O[C@@]3(C)CC[C@H]4[C@H](C)CC[C@@H]([C@H]1C)[C@@]24OO3` [ARTEMETHER], the figures for the MIC in assay [1] (LPM pH 5.8), in assay [1] (MHB) and in assay [1] (MOPS glucose minimal medium) were 50 µM (≈ 14.9 µg/mL), over 50 µM and over 50 µM, respectively. Moreover, the “intracellular MIC” value in assay [2] is 12.5 µM. The molecule further displayed a cytotoxicity in assay [3] of 7.51%.
On to `Nc1ncn([C@@H]2O[C@H](CO)[C@@H](O)[C@H]2O)c(=O)n1` [AZACITIDINE], for which the MIC in assay [1] (LPM pH 5.8) was at most 0.78 µM; in assay [1] (MHB) it was 25 µM (≈ 6.11 µg/mL); in assay [1] (MOPS glucose minimal medium), at most 0.78 µM. For the same molecule, the “intracellular MIC” value in assay [2] is at most 0.78 µM. Further, the cytotoxicity in assay [3] was determined as 16.4%.
In the case of `CC[C@H]1OC(=O)[C@H](C)[C@@H](O[C@H]2C[C@@](C)(OC)[C@@H](O)[C@H](C)O2)[C@H](C)[C@@H](O[C@@H]2O[C@H](C)C[C@H](N(C)C)[C@H]2O)[C@](C)(O)C[C@@H](C)CN(C)[C@H](C)[C@@H](O)[C@]1(C)O` [AZITHROMYCIN], the MIC in assay [1] (LPM pH 5.8), in assay [1] (MHB) and in assay [1] (MOPS glucose minimal medium) was at most 0.78 µM in each case. Moreover, the “intracellular MIC” value in assay [2] was at most 0.78 µM. The cytotoxicity in assay [3] was 21.1%.
Turning to `C[C@H]1[C@H](NC(=O)/C(=N\OC(C)(C)C(=O)O)c2csc(N)n2)C(=O)N1S(=O)(=O)O` [AZTREONAM], the MIC in assay [1] (LPM pH 5.8), in assay [1] (MHB) and in assay [1] (MOPS glucose minimal medium) was at most 0.78 µM throughout. Also, the “intracellular MIC” value in assay [2] was determined as 1.56 µM. Further, in assay [3], the cytotoxicity was determined as 6.82%.
Consider `CCCCC(=O)O[C@]1(C(=O)CO)[C@@H](C)C[C@H]2[C@@H]3CCC4=CC(=O)C=C[C@]4(C)[C@@]3(F)[C@@H](O)C[C@@]21C` [BETAMETHASONE VALERATE], for which the MIC in assay [1] (LPM pH 5.8), in assay [1] (MHB) and in assay [1] (MOPS glucose minimal medium) was over 50 µM in each case. For the same molecule, in assay [2], the “intracellular MIC” value came to 12.5 µM. In assay [3], this molecule came in with a cytotoxicity of 6.63%.
As for `O=C(CCCN1CCC(O)(c2ccc(Br)cc2)CC1)c1ccc(F)cc1` [BROMPERIDOL], the MIC in assay [1] (LPM pH 5.8), in assay [1] (MHB) and in assay [1] (MOPS glucose minimal medium) was over 50 µM in each case. Moreover, the “intracellular MIC” value in assay [2] is at most 0.78 µM. This molecule also came in with a cytotoxicity in assay [3] of 15%.
As for `Oc1c(Br)cc(Br)c2cccnc12` [BROXYQUINOLINE], the MIC in assay [1] (LPM pH 5.8) was at most 0.78 µM; in assay [1] (MHB), 50 µM (≈ 15.1 µg/mL); in assay [1] (MOPS glucose minimal medium) it was 50 µM (≈ 15.1 µg/mL). Further, the “intracellular MIC” value in assay [2] was over 50 µM. Besides, the cytotoxicity in assay [3] was found to be 15%.
Turning to `COc1cc(CNC(=O)CCCC/C=C/C(C)C)ccc1O` [CAPSAICIN], the MIC in assay [1] (LPM pH 5.8), in assay [1] (MHB) and in assay [1] (MOPS glucose minimal medium) was over 50 µM throughout. Moreover, in assay [2], the “intracellular MIC” value was over 50 µM. This molecule also had a cytotoxicity in assay [3] of 19.5%.
`COC(=O)N/N=C/c1c[n+]([O-])c2ccccc2[n+]1[O-]` [CARBADOX]: the MIC in assay [1] (LPM pH 5.8) is 25 µM (≈ 6.56 µg/mL); in assay [1] (MHB) it was over 50 µM; in assay [1] (MOPS glucose minimal medium), 50 µM (≈ 13.1 µg/mL). In addition, in assay [2], the “intracellular MIC” value was at most 0.78 µM. The molecule also gave a cytotoxicity in assay [3] of 15.6%.
Turning to `CCCCCCNC(=O)n1cc(F)c(=O)[nH]c1=O` [CARMOFUR], the MIC in assay [1] (LPM pH 5.8) was at most 0.78 µM; in assay [1] (MHB), over 50 µM; in assay [1] (MOPS glucose minimal medium), at most 0.78 µM. For the same molecule, in assay [2], the “intracellular MIC” value is 1.56 µM. In assay [3], this molecule gave a cytotoxicity of 13.7%.
As to `C=CC1=C(C(=O)O)N2C(=O)[C@@H](NC(=O)/C(=N\O)c3csc(N)n3)[C@H]2SC1` [CEFDINIR], the MIC in assay [1] (LPM pH 5.8), in assay [1] (MHB) and in assay [1] (MOPS glucose minimal medium) was at most 0.78 µM each time. Further, the “intracellular MIC” value in assay [2] is over 50 µM. Moreover, in assay [3], the cytotoxicity came out at 19.4%.
In the case of `CO/N=C(\C(=O)N[C@@H]1C(=O)N2C(C(=O)OCOC(=O)C(C)(C)C)=C(/C=C\c3scnc3C)CS[C@H]12)c1csc(N)n1` [CEFDITORIN PIVOXIL], the MIC stood at 50 µM (≈ 31 µg/mL) in assay [1] (LPM pH 5.8), 50 µM (≈ 31 µg/mL) in assay [1] (MHB) and 25 µM (≈ 15.5 µg/mL) in assay [1] (MOPS glucose minimal medium). In assay [2], the “intracellular MIC” value is over 50 µM. The molecule also gave a cytotoxicity in assay [3] of 21%.
For the molecule `CO/N=C(\C(=O)N[C@@H]1C(=O)N2C(C(=O)O)=C(C[N+]3(C)CCCC3)CS[C@H]12)c1csc(N)n1` [CEFEPIME HYDROCHLORIDE], the MIC in assay [1] (LPM pH 5.8), in assay [1] (MHB) and in assay [1] (MOPS glucose minimal medium) was at most 0.78 µM throughout. In assay [2], the “intracellular MIC” value was at most 0.78 µM. The cytotoxicity in assay [3] amounted to 15.4%.
As to `CO/N=C(\C(=O)N[C@@H]1C(=O)N2C(C(=O)O)=C(CSc3nnnn3C)CS[C@H]12)c1csc(N)n1` [CEFMENOXIME HYDROCHLORIDE], the MIC in assay [1] (LPM pH 5.8) is 1.17 µM; in assay [1] (MHB), at most 0.78 µM; in assay [1] (MOPS glucose minimal medium), at most 0.78 µM. The “intracellular MIC” value in assay [2] is 1.56 µM. Besides, in assay [3], the cytotoxicity is 8.15%.
On to `CO/N=C(\C(=O)N[C@@H]1C(=O)N2C(C(=O)O)=C(COC(C)=O)CS[C@H]12)c1csc(N)n1` [CEFOTAXIME SODIUM], for which the MIC in assay [1] (LPM pH 5.8), in assay [1] (MHB) and in assay [1] (MOPS glucose minimal medium) was at most 0.78 µM in each case. Moreover, the “intracellular MIC” value in assay [2] is at most 0.78 µM. Further, the cytotoxicity in assay [3] was determined as 7.17%.
As for `CO[C@@]1(NC(=O)C2SC(=C(C(N)=O)C(=O)O)S2)C(=O)N2C(C(=O)O)=C(CSc3nnnn3C)CS[C@@H]21` (stereo not given in full) [CEFOTETAN], the MIC in assay [1] (LPM pH 5.8), in assay [1] (MHB) and in assay [1] (MOPS glucose minimal medium) was at most 0.78 µM in each case. Further, in assay [2], the “intracellular MIC” value was found to be 1.56 µM. Moreover, the cytotoxicity in assay [3] amounted to 7.79%.
On to `CC(C)(O/N=C(\C(=O)N[C@@H]1C(=O)N2C(C(=O)[O-])=C(C[n+]3ccccc3)CS[C@H]12)c1csc(N)n1)C(=O)O` [CEFTAZIDIME], for which the figures for the MIC in assay [1] (LPM pH 5.8), in assay [1] (MHB) and in assay [1] (MOPS glucose minimal medium) were at most 0.78 µM, 12.5 µM (≈ 6.83 µg/mL) and at most 0.78 µM, respectively. In addition, the “intracellular MIC” value in assay [2] is over 50 µM. The molecule further returned a cytotoxicity in assay [3] of 20.8%.
As to `Nc1nc(/C(=C/CC(=O)O)C(=O)N[C@@H]2C(=O)N3C(C(=O)O)=CCS[C@H]23)cs1` [CEFTIBUTEN], the MIC in assay [1] (LPM pH 5.8), in assay [1] (MHB) and in assay [1] (MOPS glucose minimal medium) was at most 0.78 µM each time. Moreover, the “intracellular MIC” value in assay [2] is over 50 µM. In assay [3], this molecule yielded a cytotoxicity of 21%.
In the case of `CO/N=C(\C(=O)N[C@@H]1C(=O)N2C(C(=O)O)=C(CSC(=O)c3ccco3)CS[C@H]12)c1csc(N)n1` [CEFTIOFUR HYDROCHLORIDE], the MIC in assay [1] (LPM pH 5.8), in assay [1] (MHB) and in assay [1] (MOPS glucose minimal medium) was at most 0.78 µM throughout. The “intracellular MIC” value in assay [2] was at most 0.78 µM. Also, the cytotoxicity in assay [3] was determined as 15.6%.
Turning to `CO/N=C(\C(=O)N[C@@H]1C(=O)N2C(C(=O)O)=C(CSc3nc(=O)c(O)nn3C)CS[C@H]12)c1csc(N)n1` [CEFTRIAXONE SODIUM TRIHYDRATE], the MIC in assay [1] (LPM pH 5.8), in assay [1] (MHB) and in assay [1] (MOPS glucose minimal medium) was at most 0.78 µM in each case. The “intracellular MIC” value in assay [2] was over 50 µM. This molecule showed a cytotoxicity in assay [3] of 19.6%.
As for `COc1ccc2cc1Oc1ccc(cc1)C[C@H]1c3c(cc4c(c3Oc3cc5c(cc3OC)CCN(C)[C@@H]5C2)OCO4)CCN1C` [CEPHARANTHINE], the MIC in assay [1] (LPM pH 5.8), in assay [1] (MHB) and in assay [1] (MOPS glucose minimal medium) was over 50 µM throughout. Moreover, the “intracellular MIC” value in assay [2] is over 50 µM. For the same molecule, the cytotoxicity in assay [3] came to 13.1%.
